Source: patent US20210235699A1, “Adjuvant Compositions Comprising a Tetramethylguanidine and a 4-Isothiazolin-3-One” (Lonza, LLC, priority 2018, published 2021)

Experiments:
[1] = test system: bacterial test inoculum (Acinetobacter calcoaceticus, Escherichia coli, Pseudomonas aeruginosa, Enterobacter cloacae); assay: Quick kill testing in pre-contaminated standard interior paint (dilution-plate counts); assay type: cell-based; conditions: Table 9, 50 ppm, 30° C.
Protocol: An additional test was performed to analyze how quickly the tested biocidal compositions will recover a sample from microbial spoilage. For each sample, 20 g of a pre-contaminated standard interior paint formulation serving as a test substrate was weighed into a sterile container. All samples were contaminated with the bacterial test inoculum described above (10% of the of the total initial sample volume).
A dilution-plate count was performed on the untreated sample (0 hour time point) and a biocidal composition added aseptically to each sample. Subsequent to this treatment, further dilution-plate counts were performed at fixed time intervals (time points are given in hours) on each sample, including an untreated negative control. All samples were incubated at 30° C.±2° C.
Concentrations in ppm refer to final concentrations of the biocidal compositions in the test samples. The relative amounts of active compounds and adjuvant in the tested biocidal compositions were as indicated below: […]

[2] = test system: bacteria, fungi and yeast; conditions: cited from earlier work
[3] = test system: fungal test inoculum: Aspergillus niger, Penicillium funiculosum, Candida albicans; assay: Fungal challenge test (ASTM D2574-97, modified) in standard water based interior paint; assay type: cell-based; conditions: 50 ppm
Protocol: (§1) The following bacterial and fungal challenge tests were performed to ascertain whether low concentrations of 4-isothiazolin-3-one biocidal active compounds, pyrithione, coumarin or guanidine adjuvant are sufficient to prevent microbial contamination of final products when deliberately inoculated with spoilage microbes.
(§2) The tests were performed according to ASTM standard D2574-97 (Standard Test Method for Resistance of Emulsion Paints in the Container to Attack by Microorganisms, ASTM International, West Conshohocken, Pa.), with higher inoculation volumes and frequency. A standard water based interior paint was used as the test substrate. Sample sizes of 20 g test substrate were used and the test samples were prepared in a sterile 30 mL square Nalgene bottle.
Fungal lawns were grown on Potato Dextrose Agar (PDA) or Sabouraud Dextrose Agar (SAB). Individual fungal spore suspensions were harvested by adding 10 mL of sterile 0.05% Triton X to fungal lawns. The lawns were then gently agitated by rubbing a sterile swab on the lawn, being careful not to puncture the agar. The liquid was then aseptically transferred to a sterile bottle containing sterile glass beads. The top of the bottle was closed and the bottle shaken vigorously to break up any chunks in the suspension. The shaken spore suspension was decanted through sterile fibers into another sterile bottle. The decanted spore suspension was counted using a hemocytometer. Once the spore counts were determined, each suspension was diluted in order to obtain 10^6 spore/mL. Each diluted fungal suspension was poured into a sterile container.
(§3) The following microorganisms were used for inoculation of the tested samples:
For the bacterial challenge testing, each sample was inoculated with a combined bacterial test inoculum volume equivalent to 10% of the total initial sample volume for the initial inoculation, 5% of the total initial sample volume for the second inoculation and 2.5% of the total initial sample volume for the third inoculation. […] Samples were inoculated every 96 h.
(§4) Concentrations of biocidal active compounds and adjuvants refer to the final concentration in the test samples prior to the first inoculation.
(§5) The efficacy of the added agent in each sample was monitored by means of a streak plate test after 24 hours (all inoculations) and 72 hours of inoculation (first and second inoculation). At 72 hours of the third inoculation performed, a dilution plate count was performed in order to obtain a quantitative measurement of contamination (cfu/mL). A count of less than 10 colony forming units per mL ([…]) is considered to show no measurable contamination. For the streak plate tests, bacterial samples were streaked on Tryptic Soy Agar (TSA) and incubated for 48 hours at 30° C. before reading. Fungal samples were streaked on Potato Dextrose Agar (PDA) and incubated for 5 days at 25° C. before reading.
(§6) The streak plates were ranked from 0-5c according to the degree of microbial growth:
(§7) The challenge tests were performed as described above.

[4] = test system: combined bacterial test inoculum: Acinetobacter calcoaceticus, Escherichia coli, Pseudomonas aeruginosa, Enterobacter cloacae; assay: Bacterial challenge test (ASTM D2574-97, modified) in standard water based interior paint; assay type: cell-based; conditions: 50 ppm
Protocol: as §1, §2
The bacteria were grown on pH 5, 7, or 9 Trypticase Soy Agar (TSA) lawns. The bacteria were grown individually on TSA and harvested by using sterile buffered water. The bacterial lawns were washed off with 30 mL of sterile water and an equal volume of each individual cell suspension was withdrawn from each serum bottle to make a combined cell suspension. Combined bacterial suspension were about 10^7 cfu/mL, which provides about 10^6 cfu/mL in the sample.
as §3
For the bacterial challenge testing, each sample was inoculated with a combined bacterial test inoculum volume equivalent to 10% of the total initial sample volume for the initial inoculation, 5% of the total initial sample volume for the second inoculation and 2.5% of the total initial sample volume for the third inoculation. Inoculum volumes for the fungal challenge tests were 2%, 1% and 0.5% of the total initial sample volume, respectively. Samples were inoculated every 96 h.
as §4, §5, §6, §7

[5] = neutral pH; cited from earlier work

Compound	Dilution-plate count T4 ([1]; 4 hours after treatment)	Dilution-plate count T8 ([1]; 8 hours after treatment)	Dilution-plate count T24 ([1]; 24 hours after treatment)	amounts required for a reliable and quick biocidal activity [2]	Dilution plate count, 3rd inoculation 72 h ([3]; inoculum 0.50%)	Streak plate rank, 3rd inoculation 24 h ([3]; inoculum 0.50%)	Streak plate rank, 2nd inoculation 72 h ([3]; inoculum 1%)	Streak plate rank, 1st inoculation 24 h ([3]; inoculum 2%)	Streak plate rank, 1st inoculation 72 h ([3]; inoculum 2%)	Dilution plate count, 3rd inoculation 72 h ([4]; inoculum 2.50%)	Streak plate rank, 3rd inoculation 24 h ([4]; inoculum 2.50%)	Streak plate rank, 2nd inoculation 72 h ([4]; inoculum 5%)	Streak plate rank, 1st inoculation 24 h ([4]; inoculum 10%)	Streak plate rank, 1st inoculation 72 h ([4]; inoculum 10%)	solubility in water [5] [ppm]
O=c1[nH]sc2ccccc12 [BIT, 1,2-benzisothiazolin-3-one]	1.15 × 10^7	3.4 × 10^6	9.4 × 10^5	up to 500 ppm	2.0 × 10^2 cfu/mL	5 (5 = greater than 45 cfu)	1 (1 = 1-5 Colony Forming Unit (cfu))	5 (5 = greater than 45 cfu)	2 (2 = 6-15 cfu)	4.2 × 10^7 cfu/mL	5 (5 = greater than 45 cfu)	5 (5 = greater than 45 cfu)	5 (5 = greater than 45 cfu)	4 (4 = 31-45 cfu)	
Zinc pyrithione															8
